The test system of this data set is CCRIS mutagenicity, Ames/micronucleus/aberration tests. Briefly: CCRIS mutagenicity studies.
[1] abbreviates: Test System: AMES SALMONELLA TYPHIMURIUM, Strain/Indicator: TA98, Metabolic Activation: NONE, Method: STANDARD PLATE.
Where [2] appears, read: Test System: AMES SALMONELLA TYPHIMURIUM, Strain/Indicator: TA100, Metabolic Activation: NONE, Method: STANDARD PLATE.

Calls of active or inactive are those of the source. How the calls were made is not given here.

As for `O=[N+]([O-])c1ccccc1OS(=O)(=O)c1cccc2cccnc12`, the mutagenic call runs as follows: under setting [1], “inactive; negative”; (Test System: AMES SALMONELLA TYPHIMURIUM, Strain/Indicator: TA98, Metabolic Activation: RAT, LIVER, S-9, AROCLOR 1254, Method: STANDARD PLATE) “active; positive”; under setting [2], “inactive; negative”; (Test System: AMES SALMONELLA TYPHIMURIUM, Strain/Indicator: TA100, Metabolic Activation: RAT, LIVER, S-9, AROCLOR 1254, Method: STANDARD PLATE) “active; positive”; (Test System: AMES SALMONELLA TYPHIMURIUM, Strain/Indicator: TA1535, Metabolic Activation: NONE, Method: STANDARD PLATE) “inactive; negative”; (Test System: AMES SALMONELLA TYPHIMURIUM, Strain/Indicator: TA1535, Metabolic Activation: RAT, LIVER, S-9, AROCLOR 1254, Method: STANDARD PLATE) “inactive; negative”. Moreover, the mutagenic call (Test System: AMES SALMONELLA TYPHIMURIUM, Strain/Indicator: TA1537, Metabolic Activation: NONE, Method: STANDARD PLATE) is “inactive; negative” and the mutagenic call (Test System: AMES SALMONELLA TYPHIMURIUM, Strain/Indicator: TA1537, Metabolic Activation: RAT, LIVER, S-9, AROCLOR 1254, Method: STANDARD PLATE) is “inactive; negative”.
In the case of `CCc1ccc2c3c(cccc13)-c1ccccc1-2`, the mutagenic call under setting [1] is “inactive; negative” and the mutagenic call (Test System: AMES SALMONELLA TYPHIMURIUM, Strain/Indicator: TA98, Metabolic Activation: RAT, LIVER, S-9, AROCLOR 1254 (4%), Method: STANDARD PLATE) was “inactive; negative”.
Consider `CN(C)N=Nc1ccc(C(=O)O)cc1`, for which the mutagenic call reads like this: (Test System: AMES SALMONELLA TYPHIMURIUM, Strain/Indicator: G46, Metabolic Activation: NONE, Method: STANDARD PLATE) “inactive; negative”; (Test System: AMES SALMONELLA TYPHIMURIUM, Strain/Indicator: G46, Metabolic Activation: RAT, LIVER, S-9, PHENOBARBITAL, Method: STANDARD PLATE) “active; positive”; (Test System: AMES SALMONELLA TYPHIMURIUM, Strain/Indicator: TA92, Metabolic Activation: NONE, Method: STANDARD PLATE) “active; positive”; (Test System: AMES SALMONELLA TYPHIMURIUM, Strain/Indicator: TA92, Metabolic Activation: RAT, LIVER, S-9, PHENOBARBITAL, Method: PREINCUBATION) “inactive; negative”; (Test System: AMES SALMONELLA TYPHIMURIUM, Strain/Indicator: TA92, Metabolic Activation: RAT, LIVER, S-9, PHENOBARBITAL, Method: STANDARD PLATE) “inactive; negative”; under setting [2], “inactive; negative”. Moreover, the mutagenic call (Test System: AMES SALMONELLA TYPHIMURIUM, Strain/Indicator: TA100, Metabolic Activation: RAT, LIVER, S-9, PHENOBARBITAL, Method: STANDARD PLATE) is “inactive; negative”; the mutagenic call (Test System: E. COLI, Strain/Indicator: TM6, Metabolic Activation: NONE, Method: STANDARD PLATE) was “active; positive”; the mutagenic call (Test System: E. COLI, Strain/Indicator: TM6, Metabolic Activation: RAT, LIVER, S-9 PHENOBARBITAL, Method: STANDARD PLATE) was “active; positive”; the mutagenic call (Test System: E. COLI, Strain/Indicator: TM9, Metabolic Activation: NONE, Method: STANDARD PLATE) is “active; positive”; the mutagenic call (Test System: E. COLI, Strain/Indicator: TM9, Metabolic Activation: RAT, LIVER, S-9 PHENOBARBITAL, Method: STANDARD PLATE) was “active; positive”; the mutagenic call (Test System: E. COLI, Strain/Indicator: WP2, Metabolic Activation: NONE, Method: STANDARD PLATE) is “active; positive”. Further, the mutagenic call is, setting by setting: (Test System: E. COLI, Strain/Indicator: WP2, Metabolic Activation: RAT, LIVER, S-9 PHENOBARBITAL, Method: STANDARD PLATE) “active; positive”; (Test System: E. COLI, Strain/Indicator: WP2 UVRA, Metabolic Activation: NONE, Method: STANDARD PLATE) “active; positive”; (Test System: E. COLI, Strain/Indicator: WP2 UVRA, Metabolic Activation: RAT, LIVER, S-9 PHENOBARBITAL, Method: STANDARD PLATE) “active; positive”.
Turning to `[S]=[Co]`, the mutagenic call is “inactive; negative” (Test System: CHINESE HAMSTER G10, Strain/Indicator: G10 (GPT)/6-THIOGUANINE, Metabolic Activation: NONE); “active; positive” (Test System: CHINESE HAMSTER G12, Strain/Indicator: G12 (GPT)/6-THIOGUANINE, Metabolic Activation: NONE); “inactive; negative” (Test System: CHINESE HAMSTER V-79, Strain/Indicator: V-79 (HPRT)/6-THIOGUANINE, Metabolic Activation: NONE).

(Values after PubChem BioAssay AID1259407 (Chemical Carcinogenesis Research Information System (CCRIS), 2018).)
